Measurements from article PMC8222254, “Self-assembly of an anion receptor with metal-dependent kinase inhibition and potent in vitro anti-cancer properties” (Nature Communications, 2021).

Legend:
ARPE-19 = assay: Immunoblotting of whole cell protein lysates; assay type: cell-based, human; settings: for levels of p53: ARPE19, 5 µM, 40 h
Protocol: ARPE-19 and HCT116 p53^+/+ cells were seeded at a density of 3 × 10^5 (ARPE-19) or 5 × 10^5 (HCT116 p53^+/+) in T25 flasks. 24 h after seeding, cells were treated with 10 µM of [L2Cu3]^6+, [L2Zn3]^6+, or vehicle control for 4 h (Fig. 8b) or 5 μM of [L2Cu3]^6+, [L2Zn3]^6+, or vehicle control for 40 h (Fig. 10). Cells were then harvested and lysed in RIPA buffer (Sigma) with the protein concentration of lysates determined by the BCA assay.
(§1) Protein lysates and recombinant proteins were resolved on 15% SDS polyacrylamide gels. Proteins were electroblotted onto nitrocellulose membrane by wet transfer in 1xTris Glycine buffer (Biorad) at 35 mA overnight at room temperature. After blocking of membranes, these were incubated with primary antibody overnight at 4 °C before addition of rabbit or mouse secondary antibody (HRP-conjugated; 1:5000, Dako P0448 or P0260) for 1 h at room temperature and development of blots by enhanced chemiluminescence. Primary antibodies were: anti-Src (total) (Cell Signalling Technology #2123 1:1000), anti-phosphorylated Src (Y527) (Cell Signalling Technology #21055 1:1000), anti-phosphorylated Src (Y416) (Cell Signalling Technology #69435 1:1000), anti-AMPKα (total) (Cell Signalling Technology #2532 1:1000), anti-phosphorylated AMPKα (T172) (Cell Signalling Technology #2535 1:1000), anti-AMPKβ1 (total) (Cell Signalling Technology #4150 1:1000), anti-phosphorylated AMPKβ1 (S108) (abcam ab156890 1:500), anti-phospho-Tyr (pan) (Cell Signalling Technology #8954 1:2000), anti-p53 (Santa Cruz, DO-1 clone, 1:1000,), anti-phosphorylated LDH-A (Y10) (Cell Signalling Technology #8176 1:1000), anti-LDH-A/B (total) (abcam ab134187 1:5000), anti-β-actin (Merck MAB1501, 1:40,000). Quantification of signals was performed by densitometry using Image J software. Uncropped and unprocessed scans are provided in the Source Data file.

[1] = test system: recombinant human AMPK (pT172 AMPKα1, pS108 AMPKβ1); assay: In vitro phosphatase assay with recombinant kinase, immunoblotting; assay type: biochemical; settings: 50µM
Protocol: (§2) 800 ng of purified recombinant human AMPK (α1β2γ1) or Src kinase (MRC PPU, International Centre for Kinase Profiling, University of Dundee) was incubated with 50 μM [L2Cu3]^6+, [L2Zn3]^6+, or vehicle control in 50 mM Tris HCl pH 7.5 containing 50 μM ATP for 4 h at 37 °C. For [L2Zn3]^6+ time course and concentration titration experiments, 800 ng recombinant human AMPK was used (α1β2γ1 AMPK isoform for pT172 AMPKα1 detection or α2β1γ1 AMPK isoform for pS108 AMPKβ1 detection). For evaluation of ATP dependency and influence of AMP, 50 µM ATP was replaced with 50 µM AMP or omitted. Reactions were stopped by addition of Laemmli’s buffer (Biorad) to 1x and heating at 95 °C for 5 min before analysis by SDS PAGE and immunoblotting for detection of specific phosphorylated amino acids of AMPK and Src proteins.
as §1

Src = target: T1, Src (Homo sapiens, UniProt P12931); assay: as above; assay type: biochemical; settings: 50 μM complex, 4 h, with ATP
T1 construct: His tag (N); host or cells: baculovirus expression system
T1 sequence (P12931 whole entry): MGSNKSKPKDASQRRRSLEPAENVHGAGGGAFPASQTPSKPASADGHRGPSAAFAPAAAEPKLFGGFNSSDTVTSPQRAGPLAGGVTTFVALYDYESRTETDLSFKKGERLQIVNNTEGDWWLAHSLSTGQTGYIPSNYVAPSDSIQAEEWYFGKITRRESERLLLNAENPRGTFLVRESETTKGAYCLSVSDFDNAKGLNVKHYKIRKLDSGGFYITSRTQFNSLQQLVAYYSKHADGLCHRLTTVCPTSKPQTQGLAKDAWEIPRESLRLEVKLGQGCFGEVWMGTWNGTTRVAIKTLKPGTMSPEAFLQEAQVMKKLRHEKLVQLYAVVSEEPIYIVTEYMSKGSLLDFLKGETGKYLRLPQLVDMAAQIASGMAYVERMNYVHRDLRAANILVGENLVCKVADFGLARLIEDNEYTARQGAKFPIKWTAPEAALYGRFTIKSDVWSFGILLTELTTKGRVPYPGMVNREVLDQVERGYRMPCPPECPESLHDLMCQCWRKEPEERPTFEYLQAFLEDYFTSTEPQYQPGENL
Protocol: as §2, §1

[2] = target: recombinant human AMPK (pT172 AMPKα1, pS108 AMPKβ1) (Homo sapiens, UniProt Q9Y478); assay: as above; assay type: biochemical; settings: concentration titration 0-50µM
recombinant human AMPK (pT172 AMPKα1, pS108 AMPKβ1) (Homo sapiens, UniProt Q9Y478), sequence (Q9Y478 whole entry): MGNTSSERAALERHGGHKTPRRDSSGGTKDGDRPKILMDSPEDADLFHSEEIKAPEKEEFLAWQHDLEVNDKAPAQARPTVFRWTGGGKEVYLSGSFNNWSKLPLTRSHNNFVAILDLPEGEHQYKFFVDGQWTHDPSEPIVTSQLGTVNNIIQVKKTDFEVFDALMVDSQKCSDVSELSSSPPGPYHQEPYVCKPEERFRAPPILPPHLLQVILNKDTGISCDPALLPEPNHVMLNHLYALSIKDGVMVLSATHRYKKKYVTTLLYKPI
recombinant human AMPK (pT172 AMPKα1, pS108 AMPKβ1) (Homo sapiens, UniProt Q9Y478), sequence (P54646 whole entry partner): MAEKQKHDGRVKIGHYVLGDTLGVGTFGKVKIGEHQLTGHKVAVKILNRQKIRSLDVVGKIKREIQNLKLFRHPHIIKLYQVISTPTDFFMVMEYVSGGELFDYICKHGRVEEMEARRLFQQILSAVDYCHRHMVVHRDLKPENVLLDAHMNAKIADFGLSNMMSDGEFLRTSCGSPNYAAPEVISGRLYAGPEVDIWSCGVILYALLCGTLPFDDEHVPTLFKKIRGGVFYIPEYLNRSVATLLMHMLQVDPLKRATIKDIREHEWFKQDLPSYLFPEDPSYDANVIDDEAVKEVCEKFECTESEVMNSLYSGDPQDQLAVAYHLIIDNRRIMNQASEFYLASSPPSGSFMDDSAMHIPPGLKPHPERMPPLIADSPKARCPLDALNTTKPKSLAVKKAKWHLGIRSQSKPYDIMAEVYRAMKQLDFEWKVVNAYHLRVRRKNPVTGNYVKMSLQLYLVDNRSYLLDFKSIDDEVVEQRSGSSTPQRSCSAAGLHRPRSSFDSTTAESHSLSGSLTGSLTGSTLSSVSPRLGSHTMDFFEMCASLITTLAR
recombinant human AMPK (pT172 AMPKα1, pS108 AMPKβ1) (Homo sapiens, UniProt Q9Y478), sequence (P54619 whole entry partner): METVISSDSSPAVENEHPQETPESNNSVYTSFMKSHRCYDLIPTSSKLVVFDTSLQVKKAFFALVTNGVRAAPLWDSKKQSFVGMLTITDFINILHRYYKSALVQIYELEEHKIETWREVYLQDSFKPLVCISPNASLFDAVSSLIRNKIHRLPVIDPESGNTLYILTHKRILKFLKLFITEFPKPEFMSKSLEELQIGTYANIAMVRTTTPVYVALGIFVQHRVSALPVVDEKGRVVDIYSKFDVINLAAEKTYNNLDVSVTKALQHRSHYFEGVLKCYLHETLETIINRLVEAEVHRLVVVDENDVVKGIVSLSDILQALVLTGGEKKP
Protocol: as §2, §1

[3] = 31P NMR study of hydrolysis of phosphate esters and phosphorylated amino acids
Protocol: For ^1H NMR studies, reaction of [L2Zn3]^6+ with either Na2O3POPh and Bu4NH2PO4 was carried out in 10% D2O in CD3CN. The NMR solutions were prepared by dissolving the ligand L and Zn(C2H3O2)2 (in a ratio of 1:1.5) in CD3CN (600 µL). The relevant anion (0.5 equivalents w.r.t ligand) was dissolved in D2O (60 µL) and these solutions were then combined. Heating of the sample was carried out @ 80 °C in a water bath for the specified amount of time. For the ^31P NMR studies solutions were prepared by dissolving the ligand L and Zn(C2H3O2)2 (in a ratio of 1:1.5) in d6-DMSO (200 µL). The anion (0.5 equivalents w.r.t ligand) was dissolved in HEPES (600 µL, 60 mmol @ pH 7.4) and these solutions were then combined. Where required heating of the sample was carried out by incubating the sample @ 37 °C and/or a further 2 h @ 80 °C in a water bath.

| SMILES | levels of p53 (ARPE-19) | p-Y10 LDH-A (ARPE-19; ARPE-19, 10µM, 4h, n=1) | time from which decrease in phosphorylated T172 AMPKα and S108 AMPKβ1 is evident [1] [h] | decrease in Y527P relative to total Src levels (Src) | increase in Y416P levels (Src) | concentration from which dephosphorylation is evident [2] [µM] | dephosphorylation of serine-OPO3 2- (31P NMR) ([3]; 37 °C) | dephosphorylation of tyrosine-OPO3 2- (31P NMR) ([3]; 37 °C) | dephosphorylation of threonine-OPO3 2- (31P NMR) ([3]; 37 °C, compared with serine and tyrosine phosphate) | hydrolysis of phenyl phosphate dianion (31P NMR) ([3]; after 44 h at 37 °C, 25% DMSO / HEPES) | hydrolysis of 4-nitrophenyl phosphate (31P NMR) ([3]; following mixing) |
| --- | --- | --- | --- | --- | --- | --- | --- | --- | --- | --- | --- |
| CC(=O)[O-].CC(=O)[O-].CC(=O)[O-].CC(=O)[O-].CC(=O)[O-].CC(=O)[O-].[Zn+2].[Zn+2].[Zn+2].c1ccc(-c2csc(NCCN(CCNc3nc(-c4ccccn4)cs3)CCNc3nc(-c4ccccn4)cs3)n2)nc1.c1ccc(-c2csc(NCCN(CCNc3nc(-c4ccccn4)cs3)CCNc3nc(-c4ccccn4)cs3)n2)nc1 [[L2Zn3]6+] | decreased | modestly decrease | ≥ 2 | ~ 30% | ~ 5 fold | ≥ 12.5 | completion after 48 h | completion after 48 h | much slower | virtually no signal | almost immediate hydrolysis |
| [Cu+2].[Cu+2].[Cu+2].c1ccc(-c2csc(NCCN(CCNc3nc(-c4ccccn4)cs3)CCNc3nc(-c4ccccn4)cs3)n2)nc1.c1ccc(-c2csc(NCCN(CCNc3nc(-c4ccccn4)cs3)CCNc3nc(-c4ccccn4)cs3)n2)nc1 [[L2Cu3]6+] | decreased | – | – | – | – | – | – | – | – | – | – |
